Measured values from US10766928B2, “Targeted conformationally-constrained kinked endosomal disrupting peptides” (priority 2012, dated 2020).
In brackets after ≈: the same amount, converted by molar mass. Non-standard residues stand in square brackets, D forms with d. Residues, ends and D or L forms follow the SMILES beside them. *: point of attachment. Pentanoyl(5-NH-cholesteryl) = CC(C)CCC[C@@H](C)[C@H]1CC[C@H]2[C@@H]3CC=C4C[C@@H](NCCCCC(=O)*)CC[C@]4(C)[C@H]3CC[C@]12C; PEG3 = NCCOCCOCCOCCC(=O)O; Aib = CC(C)(N)C(=O)O; Ahx = NCCCCCC(=O)O; βAla = NCCC(=O)O

Columns and labels:
[1] = Thermodynamic solubility in PBS (pH 7.4); assay type: physicochemical; conditions: phosphate buffered saline, pH 7.4, Table 1; PBS pH 7.4, 24 hours at 22° C., ±S.D.; read-out: Solubility (aq.)
Description: Values in parentheses represent 95% confidence intervals. N.D., not determined.
Measurements represent duplicate or more replicates, with active peptides subjected to multiple replicates. ND: not determined. The peptide was non-toxic and soluble in cell culture medium at this concentration.

[2] = tested on: endosomes of Jurkat lymphocytes; assay: Endosome disruption in Jurkat lymphocytes: release of carboxyfluorescein from disulfide probe Compound 2, flow cytometry; conditions: 14 h
Protocol: (§1) The effects of the compounds of the invention on human Juikat leukemia cells were evaluated using flow cytometry-based assays of potency, efficacy, and toxicity. […] Analysis of flow cytometry data by non-linear regression was used to determine IC50 values for potency with the efficacy expressed as a percentage. […] Dose-dependent effects on cellular viability after 48 h at 37° C. in culture were also measured by flow cytometry.
(§2) The # represents the compound number in accordance with Tables A, B, and C. Concentrations of compound stock solutions were determined by absorbance measurements at 280 nm. Efficacy was determined as % change in cellular fluorescence relative to the maximal response of Compound 1, defined as 100%. Potencies and efficacies in Jurkat lymphocytes were measured by flow cytometry after treatment of cells with the compounds listed and the fluorescent probe Compound 2 (2.5 μM) for 14 hours. Toxicity to this cell line was determined by flow cytometry analysis of light scattering and counterstaining with PI after treatment for 48 h at 37° C. in culture. […] N.D., not determined.
Cells were treated with fluorescent molecular probe Compound 2 (2.5 μM) and endosome disruptors for 14 hours at 37° C. Enhanced cellular fluorescence resulting from release of the pH-sensitive fluorophore Compound 3 into the cytoplasm was quantified by flow cytometry.
Natural amino acids are represented by single letter codes. Codes for non-standard elements are as follows: Ch1: (3β-Cholest-5-en-3-yl-ammonio)pentanoyl; Ch2: (Cholester-3-yl)oxy-βAla-βAla; X: ε-Ahx; U: Aib; PB: Pacific Blue fluorophore. O: 3-(2-(2-(2-aminoethoxy)ethoxy)ethoxy)propanyl.

Jurkat lymphocytes = conditions: 48 h
Protocol: as §1, §2

Structure (SMILES) | solubility thermodynamic at 24 h [1] [µM] | EC50 [2] [µM] | IC50 (Jurkat lymphocytes) [µM]
CC(C)CCC[C@@H](C)[C@H]1CC[C@H]2[C@@H]3CC=C4C[C@@H](NCCCCC(=O)N[C@@H](CCC(=O)O)C(=O)N[C@@H](CCC(=O)O)C(=O)NCCCCCC(=O)NCCCCCC(=O)N[C@@H](C)C(=O)N[C@@H](C)C(=O)N[C@@H](C)C(=O)N[C@@H](Cc5c[nH]c6ccccc56)C(=O)N[C@@H](Cc5c[nH]c6ccccc56)C(=O)N[C@@H](C)C(=O)N[C@@H](Cc5ccc(O)cc5)C(=O)N[C@@H](Cc5c[nH]c6ccccc56)C(=O)N5CCC[C@H]5C(=O)N5CCC[C@H]5C(=O)N[C@H](C(=O)N[C@@H](C)C(N)=O)C(C)C)CC[C@]4(C)[C@H]3CC[C@]12C [Compound 5, R = EEXXAAAWWAYWPPVA-CONH2] ({Pentanoyl(5-NH-cholesteryl)}-EE[Ahx][Ahx]AAAWWAYWPPVA-NH2) | 10 ± 1 (≈ 23.4 µg/mL) | 0.4 | 14
CC(C)CCC[C@@H](C)[C@H]1CC[C@H]2[C@@H]3CC=C4C[C@@H](NCCCCC(=O)NCCC(=O)N[C@@H](CCC(=O)O)C(=O)N[C@@H](CCC(=O)O)C(=O)NCCCCCC(=O)NC(C)(C)C(=O)NC(C)(C)C(=O)NC(C)(C)C(=O)N[C@@H](Cc5c[nH]c6ccccc56)C(=O)N[C@@H](Cc5c[nH]c6ccccc56)C(=O)N[C@@H](C)C(=O)N[C@@H](Cc5ccc(O)cc5)C(=O)N[C@@H](Cc5c[nH]c6ccccc56)C(=O)N5CCC[C@H]5C(=O)N5CCC[C@H]5C(=O)N[C@H](C(=O)N[C@@H](C)C(N)=O)C(C)C)CC[C@]4(C)[C@H]3CC[C@]12C [Compound 9, R = BEEXUUUWWAYWPPVA-CONH2] ({Pentanoyl(5-NH-cholesteryl)-βAla}-EE[Ahx][Aib][Aib][Aib]WWAYWPPVA-NH2) | 12 ± 1 (≈ 28.1 µg/mL) | 0.4 | 11
CC(C)CCC[C@@H](C)[C@H]1CC[C@H]2[C@@H]3CC=C4C[C@@H](NCCCCC(=O)NCCC(=O)N[C@@H](CCC(=O)O)C(=O)N[C@@H](CCC(=O)O)C(=O)NCCCCCC(=O)NC(C)(C)C(=O)NC(C)(C)C(=O)NC(C)(C)C(=O)N[C@@H](Cc5c[nH]c6ccccc56)C(=O)N[C@@H](Cc5c[nH]c6ccccc56)C(=O)N[C@@H](C)C(=O)N[C@@H](Cc5c[nH]c6ccccc56)C(=O)N[C@@H](Cc5c[nH]c6ccccc56)C(=O)N5CCC[C@H]5C(=O)N5CCC[C@H]5C(=O)N[C@H](C(=O)N[C@@H](C)C(N)=O)C(C)C)CC[C@]4(C)[C@H]3CC[C@]12C [Compound 19, R = BEEXUUUWWAWWPPVA-CONH2] ({Pentanoyl(5-NH-cholesteryl)-βAla}-EE[Ahx][Aib][Aib][Aib]WWAWWPPVA-NH2) | – | 1 | 20
CC(C)CCC[C@@H](C)[C@H]1CC[C@H]2[C@@H]3CC=C4C[C@@H](NCCCCC(=O)NCCC(=O)N[C@@H](CCC(=O)O)C(=O)N[C@@H](CCC(=O)O)C(=O)NCCCCCC(=O)NC(C)(C)C(=O)NC(C)(C)C(=O)NC(C)(C)C(=O)NC(C)(C)C(=O)N[C@@H](Cc5c[nH]c6ccccc56)C(=O)N[C@@H](Cc5c[nH]c6ccccc56)C(=O)N[C@@H](C)C(=O)N[C@@H](Cc5ccc(O)cc5)C(=O)N[C@@H](Cc5c[nH]c6ccccc56)C(=O)N5CCC[C@H]5C(=O)N5CCC[C@H]5C(=O)N[C@H](C(=O)N[C@@H](C)C(N)=O)C(C)C)CC[C@]4(C)[C@H]3CC[C@]12C [Compound 20, R = BEEXUUUUWWAYWPPVA-CONH2] ({Pentanoyl(5-NH-cholesteryl)-βAla}-EE[Ahx][Aib][Aib][Aib][Aib]WWAYWPPVA-NH2) | – | 0.1 | 15
CC(C)CCC[C@@H](C)[C@H]1CC[C@H]2[C@@H]3CC=C4C[C@@H](NCCCCC(=O)NCCC(=O)N[C@@H](CCC(=O)O)C(=O)N[C@@H](CCC(=O)O)C(=O)NCCCCCC(=O)NCCCCCC(=O)NC(C)(C)C(=O)NC(C)(C)C(=O)NC(C)(C)C(=O)NC(C)(C)C(=O)N[C@@H](Cc5c[nH]c6ccccc56)C(=O)N[C@@H](Cc5c[nH]c6ccccc56)C(=O)N[C@@H](C)C(=O)N[C@@H](Cc5ccc(O)cc5)C(=O)N[C@@H](Cc5c[nH]c6ccccc56)C(=O)N5CCC[C@H]5C(=O)N5CCC[C@H]5C(=O)N[C@H](C(=O)N[C@@H](C)C(N)=O)C(C)C)CC[C@]4(C)[C@H]3CC[C@]12C [Compound 21, R = BEEXXUUUUWWAYWPPVA-CONH2] ({Pentanoyl(5-NH-cholesteryl)-βAla}-EE[Ahx][Ahx][Aib][Aib][Aib][Aib]WWAYWPPVA-NH2) | – | 0.1 | 9
CC(C)CCC[C@@H](C)[C@H]1CC[C@H]2[C@@H]3CC=C4C[C@@H](NCCCCC(=O)NCCC(=O)N[C@@H](CCC(=O)O)C(=O)N[C@@H](CCC(=O)O)C(=O)NCCCCCC(=O)NCCCCCC(=O)NC(C)(C)C(=O)NC(C)(C)C(=O)NC(C)(C)C(=O)NC(C)(C)C(=O)N[C@@H](Cc5ccc(O)cc5)C(=O)N[C@@H](Cc5ccc(O)cc5)C(=O)N[C@@H](C)C(=O)N[C@@H](Cc5ccc(O)cc5)C(=O)N[C@@H](Cc5ccc(O)cc5)C(=O)N5CCC[C@H]5C(=O)N5CCC[C@H]5C(=O)N[C@H](C(=O)N[C@@H](C)C(N)=O)C(C)C)CC[C@]4(C)[C@H]3CC[C@]12C [Compound 23, R = BEEXXUUUUYYAYYPPVA-CONH2] ({Pentanoyl(5-NH-cholesteryl)-βAla}-EE[Ahx][Ahx][Aib][Aib][Aib][Aib]YYAYYPPVA-NH2) | – | 0.1 | 4
CC(C)CCC[C@@H](C)[C@H]1CC[C@H]2[C@@H]3CC=C4C[C@@H](NCCCCC(=O)NCCC(=O)N[C@@H](CCC(=O)O)C(=O)N[C@@H](CCC(=O)O)C(=O)NCCCCCC(=O)NCCCCCC(=O)NC(C)(C)C(=O)NC(C)(C)C(=O)NC(C)(C)C(=O)NC(C)(C)C(=O)N[C@@H](Cc5ccc(O)cc5)C(=O)N[C@@H](Cc5ccc(O)cc5)C(=O)N[C@@H](Cc5ccc(O)cc5)C(=O)N[C@@H](Cc5ccc(O)cc5)C(=O)N[C@@H](Cc5ccc(O)cc5)C(=O)N5CCC[C@H]5C(=O)N5CCC[C@H]5C(=O)N[C@H](C(=O)N[C@@H](C)C(N)=O)C(C)C)CC[C@]4(C)[C@H]3CC[C@]12C [Compound 24, R = BEEXXUUUUYYYYYPPVA-CONH2] ({Pentanoyl(5-NH-cholesteryl)-βAla}-EE[Ahx][Ahx][Aib][Aib][Aib][Aib]YYYYYPPVA-NH2) | – | 0.09 | 5
CC(C)CCC[C@@H](C)[C@H]1CC[C@H]2[C@@H]3CC=C4C[C@@H](NCCCCC(=O)NCCC(=O)N[C@@H](CCC(=O)O)C(=O)N[C@@H](CCC(=O)O)C(=O)NCCOCCOCCOCCC(=O)NCCOCCOCCOCCC(=O)NC(C)(C)C(=O)NC(C)(C)C(=O)NC(C)(C)C(=O)NC(C)(C)C(=O)N[C@@H](Cc5c[nH]c6ccccc56)C(=O)N[C@@H](Cc5c[nH]c6ccccc56)C(=O)N[C@@H](C)C(=O)N[C@@H](Cc5ccc(O)cc5)C(=O)N[C@@H](Cc5c[nH]c6ccccc56)C(=O)N5CCC[C@H]5C(=O)N5CCC[C@H]5C(=O)N[C@H](C(=O)N[C@@H](C)C(=O)N[C@@H](C)C(N)=O)C(C)C)CC[C@]4(C)[C@H]3CC[C@]12C [Compound 27, R = BEEOOUUUUWWAYWPPVAA-CONH2] ({Pentanoyl(5-NH-cholesteryl)-βAla}-EE[PEG3][PEG3][Aib][Aib][Aib][Aib]WWAYWPPVAA-NH2) | – | 0.2 | 3
